Measured values taken from ChEMBL document CHEMBL5303711, “ECBD screening data for assay EOS300108” (2023).
Activity calls are given as the source filed them. The rule behind the calls is not given here.

Assay: Cytotoxicity activity against human HepG2 cells assessed by CellTiter-Glo luminescent cell viability assay.
Assay type: toxicity, cell-based
Design: assay stage confirmatory assay, source tissue liver
Conditions: HepG2 cells, read-out: IC50 relative

Row | SMILES | CC50
1 | O=c1[nH]ccc2c(Br)cccc12 | 8.3 µM (inactive)
2 | CN1CCN(S(=O)(=O)c2cccc(C(=O)Nc3nc(-c4ccccc4)cs3)c2)CC1 | 12.5 µM (active)
3 | O=c1c2ccccc2sn1-c1nccs1 | 50 µM (inactive)
4 | COc1ccccc1C(=O)Nc1nc2ccccc2[nH]1 | 2.8 µM (active)
5 | COc1ccc(-n2ccc(C(=O)Nc3cc(Cl)c(=O)n(C)c3)n2)cc1 | 7.7 µM (active)
6 | CC(C)N1CCC(NC(=O)CN2CCCN(Cc3ccccc3)c3ccccc32)CC1 | 12.4 µM (active)
7 | Cc1n[nH]c(C)c1CC(=O)Nc1cnn([C@@H](C)C2CC2)c1 | 50 µM (inactive)
8 | C[C@@H]1CNCCN1S(=O)(=O)c1cccc(Br)c1 | 50 µM (inactive)
9 | O=C(CCN1CCCCC1)c1cc2ccccc2o1 | 21.1 µM (inactive)
10 | Cc1ccnc(NC(=O)c2csc(Cl)c2)n1 | 4.8 µM (active)
11 | COC[C@H](C)Nc1cccc(N(C)C(C)C)c1 | 8.6 µM (active)
12 | CC1=CCN(C[C@H](O)COc2ccc3c(c2)OCO3)CC1 | 13.5 µM (inactive)
13 | Cc1cc(C)nc(-n2ncc(Cl)c(Cl)c2=O)n1 | 3.8 µM (active)
14 | CNc1nc(N2CCCO[C@@H](CN)C2)nc2ccccc12 | 6.4 µM (active)
15 | Cc1nc(CCN[C@@H](C)c2ccc(S(N)(=O)=O)cc2)cs1 | 2.7 µM (active)
16 | CCN1CCC(NC[C@H](C)Oc2ccc(C(C)C)cc2)CC1 | 7.1 µM (active)
17 | O=S(=O)(C[C@H]1CCOC1)NC1CCN(Cc2ccc(Cl)cc2)CC1 | 12.9 µM (active)
18 | CC(C)c1cnc(NC(=O)N2CC3(CN(C)C(=O)O3)C2)s1 | 12.7 µM (inactive)
19 | CN1CCc2nc(C(=O)c3nc4c(s3)CN(C)CC4)sc2C1 | 0.5 µM (active)
20 | CCOc1ncccc1C(=O)NCc1nccc2ccccc12 | 3.9 µM (active)
21 | CN(C)C(=O)c1cccc(CN(C)c2ccccc2CO)c1 | 10.9 µM (active)
22 | Cc1ccc(NC(=O)Cc2ccc(-n3cccc3)cc2)nc1 | 1.6 µM (active)
23 | COc1ccc(Nc2nc(CN3CCN(S(=O)(=O)c4cccs4)CC3)cs2)cc1 | 7.1 µM (active)
24 | CN(C)CC1(O)CCCN(Cc2cc3ccccc3n2C)C1 (stereo not given) | 11.8 µM (active)
25 | O=C(Nc1cccc2cccnc12)c1cn2ccccc2n1 | < 0.1 µM (active)
26 | Cc1ccccc1C[C@H](C)NCCN1CCC(N(C)C)CC1 | 13.7 µM (inactive)
27 | CCOc1cc(F)ccc1NC(=O)c1csc(-c2cnn(C)c2)n1 | 0.4 µM (active)

Row | SMILES | CC50
28 | CC(C)c1ccc(NC(=O)c2ccc(N3CCOCC3)nc2)cc1 | 10.5 µM (inactive)
29 | CN(C)c1ccc(Cl)cc1NC(=O)c1cn(CCC2CCCCN2)nn1 (stereo not given) | 6.8 µM (active)
30 | CCc1oc2ccccc2c1CN(C)C(=O)C1(C)CCN(C)CC1 | 12 µM (active)
31 | Nc1nc(C2CC(N)C2)cc(N2CCC(OCc3ccccc3)CC2)n1 (stereo not given) | 10.8 µM (active)
32 | O=S(=O)(c1ccc(S(=O)(=O)N2CCOc3ccccc32)cc1)N1CCCC1 | 4.2 µM (active)
33 | CCS(=O)(=O)c1ccc(NC(=O)c2ccc(F)c(S(=O)(=O)N3CCCCC3)c2)cc1 | 6.1 µM (inactive)
34 | Cn1nccc1CCNC(=O)c1csc(-c2ccoc2)n1 | 2 µM (active)
35 | Cc1ccc2ncc(C(=O)Nc3ccc(Cl)cc3O)c(=O)n2c1 | 1.4 µM (inactive)
36 | c1ccc(Oc2cccc(C[C@H]3CCCN3)c2)cc1 | 13.7 µM (inactive)
37 | COc1ccc(OC)c(-c2cc(C(=O)Nc3ccccn3)no2)c1 | 0.8 µM (inactive)
38 | C[C@H](O)CN1CCC(CNCc2cccc(C(F)(F)F)c2)CC1 | 15.5 µM (inactive)
39 | COc1ccc2oc(C(=O)Nc3ncccc3O)c(C)c2c1 | 47.2 µM (inactive)
40 | Cn1ccc(C(=O)Nc2cc(F)ccc2-n2cccn2)cc1=O | 1.1 µM (inactive)
41 | COc1cc(C(=O)Nn2cnc3ccccc32)cc(Cl)c1OCC(N)=O | 8.3 µM (inactive)
42 | c1ccc(COc2ccc3c(c2)CCNCC3)cc1 | 10.8 µM (active)
43 | CCOc1ccc(NC(=O)CNC[C@H]2CCCO2)cc1C | 40.3 µM (inactive)
44 | COCC(=O)N1CCCN(Cc2ccc3c4c(cccc24)C(=O)OC3)CC1 | 13.4 µM (active)
45 | CCC[C@]1(C)NC(=O)N(Cc2cc(-c3ccccc3)on2)C1=O | 2.4 µM (active)
46 | Cc1cc(C)cc(N2CCN(C(=O)c3cnn4ccccc34)CC2=O)c1 | 0.7 µM (active)
47 | CC[C@H]1CN(c2ccccc2)CCN1c1ccnc(C(C)C)n1 | 10.7 µM (active)
48 | Fc1ccccc1CC1CCN(C[C@H]2[C@@H]3CNC[C@@H]32)CC1 | 8.8 µM (active)
49 | Cc1ccc(NC(=O)c2cc3ccccc3c(=O)[nH]2)cc1 | 50 µM (inactive)
50 | O=c1cc(O)c2c(-c3ccc(F)cc3)csc2[nH]1 | 2.7 µM (active)
51 | N#Cc1c[nH]c(C(=O)Nc2cc(C(F)(F)F)ccn2)c1 | 12.3 µM (active)
52 | O=C(Cc1cnn(-c2ccccc2)c1)N1CCN(S(=O)(=O)c2ccc3c(c2)OCCCO3)CC1 | 8.6 µM (active)
53 | Cc1cc(=O)n2nc(Sc3ncc4ccccn34)sc2n1 | 12.1 µM (active)
54 | COc1ccc(C(=O)Nc2nc3cc4c(cc3s2)OCCO4)cn1 | 50 µM (inactive)

Row | SMILES | CC50
55 | O=C(NCc1ccc(-n2ccnc2)nc1)[C@@H]1CC(c2ccccc2)=NO1 | 6.3 µM (active)
56 | CN(Cc1ccc2c(c1)OCCO2)C(=O)[C@H]1CCCN(S(N)(=O)=O)C1 | 50 µM (inactive)
57 | Cc1cnccc1NCCNC1CCN(c2ccc(F)c(F)c2)CC1 | 1.7 µM (active)
58 | Oc1ccc2[nH]ncc2c1Br | 7.1 µM (active)
59 | CN1CCCN(C(=O)Nc2ccc3c4c(cccc24)CC3)CC1 | 9.4 µM (active)
60 | CC(C)c1cnc(NC(=O)N2CC[C@H](Nc3ccc4nccn4n3)C2)s1 | 3.2 µM (active)
61 | CS(=O)(=O)Nc1ccc(C(=O)N2CCN(CCOc3ccc(Cl)cc3)CC2)cc1 | 4.6 µM (active)
62 | CC(C)(C)Cc1cc(NC(=O)[C@@H]2CCCN2C(=O)c2ccc3c(c2)OCO3)[nH]n1 | 0.8 µM (active)
63 | Cc1cc(NC(=O)N[C@H]2CCN(CC3CCCC3)C2)cc(N2CCN(C)CC2)c1 | 9.3 µM (active)
64 | O=C(Nc1cnn(-c2ccccn2)c1)c1ccc(O)c(Cl)c1 | 50 µM (inactive)
65 | CC(=O)c1ccc(S(=O)(=O)Nc2cccc3cccnc23)cc1 | 3.5 µM (active)
66 | Fc1ccc(C(CCNC[C@@H]2[C@H]3CNC[C@@H]23)c2ccco2)cc1 (stereo not given in full) | 7.1 µM (active)
67 | O=C(Cn1ncc(Cl)c(Cl)c1=O)NCc1ccccc1 | 5.4 µM (active)
68 | CN([C@H]1CCN(c2ccccc2F)C1=O)S(=O)(=O)c1cccc2cnccc12 | 4.3 µM (active)
69 | Cc1cccc(C(=O)Nc2nc(-c3nccn3C)cs2)c1 | 4.7 µM (active)
70 | COc1ccc(-c2nc(Cn3ncc(Cl)c(Cl)c3=O)co2)cc1 | 11 µM (active)
71 | COc1cc(OC)c(C2=CCN(C[C@H](O)COc3ccccc3F)CC2)c(OC)c1 | 6 µM (active)
72 | COc1ccccc1OCCNc1ncnc2cc(F)ccc12 | 1.5 µM (active)
73 | N#Cc1nccnc1Sc1nnc(COc2ccc(Cl)cc2)o1 | 2.9 µM (active)
74 | C[C@H]1CN(C)c2ccccc2N(Cc2cc3ccccc3c(=O)[nH]2)C1 | 16.9 µM (inactive)
75 | c1cc(N2CCC[C@H]2C2CCCCC2)nc(C2CC2)n1 | 11.8 µM (active)
76 | O=C(CN1C(=O)COc2ccc(Cl)cc21)N1CCC(c2c[nH]c3ncccc23)CC1 | 8.8 µM (active)
77 | CCCC[C@H](CC)CNC1CCN(C(C)C)CC1 | 7.8 µM (inactive)
78 | Cc1cc2c(=O)nc(-c3cc(OCC(F)F)ccn3)[nH]c2s1 | 2.2 µM (active)
79 | COc1ccc(C(N)=O)c(OCc2cn3ccccc3c2C#N)c1 | 10.7 µM (inactive)
80 | C#CCNC(=O)c1ccccc1NCc1ccc(C#N)cc1OC | 1 µM (active)
81 | C[C@]1(c2cccc(C#N)c2)NC(=O)N(Cc2noc(-c3ccsc3)n2)C1=O | 12.5 µM (inactive)

Row | SMILES | CC50
82 | CCC1CN(Cc2ccccc2OCc2cccc(OC)c2)CCN1C (stereo not given) | 17.8 µM (inactive)
83 | C1=CC[C@@H](CNC2CCN(Cc3ccccc3)CC2)CC1 | 13 µM (active)
84 | CNC(=O)c1c(N)sc2c1-c1ccccc1C2 | 19.3 µM (inactive)
85 | NC1CCN(S(=O)(=O)c2ccc([C@H]3[C@@H]4CCCC[C@@H]43)cc2)CC1 | 12 µM (active)
86 | CCO[C@@H](CCNC(=O)c1csc(-c2ccoc2)n1)C(C)C | 1.3 µM (active)
87 | CN[C@H]1CCCN(S(=O)(=O)c2ccc(Cl)cc2F)C1 | 17.1 µM (inactive)
88 | O=S(=O)(Nc1cccc2cccnc12)c1ccccc1F | 2.6 µM (active)
89 | Cc1cc(-c2ccc(O)cc2O)nc2cc3c(cc12)OCO3 | 26.3 µM (inactive)
90 | COc1ncccc1NC(=O)c1n[nH]c2ccccc12 | 0.1 µM (active)
91 | COc1ccc(C(N)=O)c(OCc2cccc3cccnc23)c1 | 0.3 µM (active)
92 | CN(C)S(=O)(=O)c1ccc2oc(SCCOc3ccccc3)nc2c1 | 10 µM (active)
93 | O=C(Nc1nc(-c2ccc(F)cc2)n[nH]1)c1ccco1 | 3.4 µM (active)
94 | O=C(Nc1cccc(Cl)c1O)c1sccc1Br | 0.8 µM (active)
95 | CC[C@@](NC(=O)c1csc(-c2ccoc2)n1)(C(N)=O)C(C)C | 5.2 µM (active)
96 | NC(=O)c1cc(-c2csc(Nc3ccccc3)n2)ccc1O | 14.2 µM (inactive)
97 | O=C(Nc1cccc2cccnc12)c1cccc2cn[nH]c12 | 50 µM (inactive)
98 | Cc1nc2ccccc2n1CCN1CCN(CCOc2ccccc2)CC1 | 7.5 µM (active)
99 | O=C(N[C@H]1CCCc2sccc21)c1cccc2c1OCO2 | 6.5 µM (active)
100 | Cn1c(=O)c2ccc(C(=O)Nc3nc(-c4ccco4)cs3)nc2n(C)c1=O | 10.5 µM (inactive)
101 | COc1cc(OC)cc(C(=O)N2CCN(Cn3ncc(Cl)c(Cl)c3=O)CC2)c1 | 23.4 µM (inactive)
102 | O=C(Nc1ccccc1O)c1cccc(NC(=O)c2cccs2)c1 | 7.1 µM (active)
103 | Cc1cccc2nc(C(=O)Nc3ccc(S(=O)(=O)Nc4nccs4)cc3)cn12 | 1.4 µM (inactive)
104 | COc1ccccc1OCC(=O)Nc1nc(-c2ccccn2)cs1 | 2.7 µM (active)
105 | COc1ccc(-c2cnc3ccc(N4CCCC4)nn23)cc1OC | 4.3 µM (active)
